Source: PubChem BioAssay AID2060604 (Molecular Pharmacology Branch, DTP, NCI, 2025)

Test system: 379773-124-R-J2-PDC complex spheroids, viability % test/control
Test: Anticancer human tumor 379773-124-R-J2-PDC patient-derived endometrial carcinoma cell line growth inhibition [CLK]
Details: for IC50: curve of first compound; for viability, T/C: stronger effect = lower value
Outline: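 Patient-derived tumor cells grown as complex spheroids with HUVEC endothelial cells and mesenchymal stem cells, treated with drug combinations. Concentrations descend in half-log steps from near clinical Cmax, or from 10 microM if Cmax unknown.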

[1] = second compound 0.0316 µM, first compound 0.0316 µM
[2] = second compound 0.0316 µM, first compound 0.1 µM
[3] = second compound 0.0316 µM, first compound 0.316 µM
[4] = second compound 0.0316 µM, first compound 1 µM
[5] = second compound 0.0316 µM, first compound 3.16 µM
[6] = second compound 0.0316 µM, first compound 10 µM
[7] = second compound 0.1 µM, first compound 0.0316 µM
[8] = second compound 0.1 µM, first compound 0.1 µM
[9] = second compound 0.1 µM, first compound 0.316 µM
[10] = second compound 0.1 µM, first compound 1 µM
[11] = second compound 0.1 µM, first compound 3.16 µM
[12] = second compound 0.1 µM, first compound 10 µM
[13] = second compound 0.316 µM, first compound 0.0316 µM
[14] = second compound 0.316 µM, first compound 0.1 µM
[15] = second compound 0.316 µM, first compound 0.316 µM
[16] = second compound 0.316 µM, first compound 1 µM
[17] = second compound 0.316 µM, first compound 3.16 µM
[18] = second compound 0.316 µM, first compound 10 µM
[19] = second compound 1 µM, first compound 0.0316 µM
[20] = second compound 1 µM, first compound 0.1 µM
[21] = second compound 1 µM, first compound 0.316 µM
[22] = second compound 1 µM, first compound 1 µM
[23] = second compound 1 µM, first compound 3.16 µM
[24] = second compound 1 µM, first compound 10 µM
[25] = second compound 3.16 µM, first compound 0.0316 µM
[26] = second compound 3.16 µM, first compound 0.1 µM
[27] = second compound 3.16 µM, first compound 0.316 µM
[28] = second compound 3.16 µM, first compound 1 µM
[29] = second compound 3.16 µM, first compound 3.16 µM
[30] = second compound 3.16 µM, first compound 10 µM
[31] = second compound 10 µM, first compound 0.0316 µM
[32] = second compound 10 µM, first compound 0.1 µM
[33] = second compound 10 µM, first compound 0.316 µM
[34] = second compound 10 µM, first compound 1 µM
[35] = second compound 10 µM, first compound 3.16 µM
[36] = second compound 10 µM, first compound 10 µM
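Further: compound exposure lasted seven days before the viability readout.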
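Wherever viability, T/C is given: 100% = DMSO vehicle control wells.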

In the case of `CC(C)CC(NC(=O)C(Cc1ccccc1)NC(=O)c1cnccn1)B(O)O` (stereo unspecified) + CNC(=O)c1ccc(Nc2nc(OC3CCCC3)c3c(-c4ccc5nc(C)oc5c4)c[nH]c3n2)c(OC)c1, the IC50 (second compound 0.0316 µM) is reported as 1.54 nM, the IC50 (second compound 0.1 µM) is reported as < 0.949 nM and the IC50 (second compound 0.316 µM) is reported as < 0.949 nM. For the same compound, the IC50 (second compound 1 µM) was < 0.949 nM, the IC50 (second compound 3.16 µM) was < 0.949 nM and the IC50 (second compound 10 µM) was < 0.949 nM. For the same compound, the viability, T/C (second compound 0.0316 µM, first compound 0.000949 µM) was 81.6%, the viability, T/C (second compound 0.0316 µM, first compound 0.003 µM) was 6.67% and the viability, T/C (second compound 0.0316 µM, first compound 0.00949 µM) was 0.17%. For the same compound, the viability, T/C (second compound 0.0316 µM, first compound 0.03 µM) was 0.19%, the viability, T/C (second compound 0.0316 µM, first compound 0.0949 µM) was 0.13% and the viability, T/C (second compound 0.0316 µM, first compound 0.3 µM) was 0.1%. For the same compound, the viability, T/C (second compound 0.1 µM, first compound 0.000949 µM) was 33.4%, the viability, T/C (second compound 0.1 µM, first compound 0.003 µM) was 3.4% and the viability, T/C (second compound 0.1 µM, first compound 0.00949 µM) was 0.32%. The viability, T/C (second compound 0.1 µM, first compound 0.03 µM) was 0.13%, the viability, T/C (second compound 0.1 µM, first compound 0.0949 µM) was 0.12% and the viability, T/C (second compound 0.1 µM, first compound 0.3 µM) was 0.09%. The viability, T/C (second compound 0.316 µM, first compound 0.000949 µM) was 42.3%, the viability, T/C (second compound 0.316 µM, first compound 0.003 µM) was 1.94% and the viability, T/C (second compound 0.316 µM, first compound 0.00949 µM) was 0.13%. It also gave a viability, T/C (second compound 0.316 µM, first compound 0.03 µM) of 0.1%, a viability, T/C (second compound 0.316 µM, first compound 0.0949 µM) of 0.08% and a viability, T/C (second compound 0.316 µM, first compound 0.3 µM) of 0.08%. It also gave a viability, T/C (second compound 1 µM, first compound 0.000949 µM) of 31.1%, a viability, T/C (second compound 1 µM, first compound 0.003 µM) of 1.88% and a viability, T/C (second compound 1 µM, first compound 0.00949 µM) of 0.11%. The viability, T/C (second compound 1 µM, first compound 0.03 µM) was 0.1%, the viability, T/C (second compound 1 µM, first compound 0.0949 µM) was 0.08% and the viability, T/C (second compound 1 µM, first compound 0.3 µM) was 0.08%. It also gave a viability, T/C (second compound 3.16 µM, first compound 0.000949 µM) of 30.1%, a viability, T/C (second compound 3.16 µM, first compound 0.003 µM) of 0.38% and a viability, T/C (second compound 3.16 µM, first compound 0.00949 µM) of 0.11%. It also gave a viability, T/C (second compound 3.16 µM, first compound 0.03 µM) of 0.09%, a viability, T/C (second compound 3.16 µM, first compound 0.0949 µM) of 0.1% and a viability, T/C (second compound 3.16 µM, first compound 0.3 µM) of 0.13%. The viability, T/C (second compound 10 µM, first compound 0.000949 µM) was 33.1%, the viability, T/C (second compound 10 µM, first compound 0.003 µM) was 0.42% and the viability, T/C (second compound 10 µM, first compound 0.00949 µM) was 0.13%. For the same compound, the viability, T/C (second compound 10 µM, first compound 0.03 µM) was 0.11%, the viability, T/C (second compound 10 µM, first compound 0.0949 µM) was 0.16% and the viability, T/C (second compound 10 µM, first compound 0.3 µM) was 0.12%.
For `CC1COCCN1c1cc(C2(S(C)(=N)=O)CC2)nc(-c2ccnc3[nH]ccc23)n1` (stereo unspecified) + CNC(=O)c1ccc(Nc2nc(OC3CCCC3)c3c(-c4ccc5nc(C)oc5c4)c[nH]c3n2)c(OC)c1, the IC50 (second compound 0.0316 µM) was 1870 nM, the IC50 (second compound 0.1 µM) was < 31.6 nM and the IC50 (second compound 0.316 µM) was < 31.6 nM. For the same compound, the IC50 (second compound 1 µM) was < 31.6 nM, the IC50 (second compound 3.16 µM) was < 31.6 nM and the IC50 (second compound 10 µM) was < 31.6 nM. It also gave a viability, T/C [1] of 78%, a viability, T/C [2] of 83.8% and a viability, T/C [3] of 86.2%. It also gave a viability, T/C [4] of 67.2%, a viability, T/C [5] of 34.5% and a viability, T/C [6] of 9.32%. It also gave a viability, T/C [7] of 42.7%, a viability, T/C [8] of 44.6% and a viability, T/C [9] of 36.1%. The viability, T/C [10] was 42.7%, the viability, T/C [11] was 26% and the viability, T/C [12] was 9.26%. The viability, T/C [13] was 42.6%, the viability, T/C [14] was 38.5% and the viability, T/C [15] was 39.1%. The viability, T/C [16] was 41.5%, the viability, T/C [17] was 30.1% and the viability, T/C [18] was 12.7%. The viability, T/C [19] was 40.6%, the viability, T/C [20] was 36.1% and the viability, T/C [21] was 37%. It also gave a viability, T/C [22] of 36.5%, a viability, T/C [23] of 20.5% and a viability, T/C [24] of 5.75%. The viability, T/C [25] was 27.9%, the viability, T/C [26] was 34% and the viability, T/C [27] was 31.9%. It also gave a viability, T/C [28] of 31.4%, a viability, T/C [29] of 21.4% and a viability, T/C [30] of 5.79%. It also gave a viability, T/C [31] of 29.7%, a viability, T/C [32] of 40.1% and a viability, T/C [33] of 28.9%. It also gave a viability, T/C [34] of 24.9%, a viability, T/C [35] of 24.2% and a viability, T/C [36] of 4.37%.
For `O=C(c1cc(Cc2n[nH]c(=O)c3ccccc23)ccc1F)N1CCN(C(=O)C2CC2)CC1` + CNC(=O)c1ccc(Nc2nc(OC3CCCC3)c3c(-c4ccc5nc(C)oc5c4)c[nH]c3n2)c(OC)c1, the IC50 (second compound 0.0316 µM) was 5600 nM, the IC50 (second compound 0.1 µM) was < 31.6 nM and the IC50 (second compound 0.316 µM) was < 31.6 nM. The IC50 (second compound 1 µM) was < 31.6 nM, the IC50 (second compound 3.16 µM) was < 31.6 nM and the IC50 (second compound 10 µM) was < 31.6 nM. For the same compound, the viability, T/C [1] was 76.2%, the viability, T/C [2] was 75.1% and the viability, T/C [3] was 67.7%. The viability, T/C [4] was 75.4%, the viability, T/C [5] was 69.9% and the viability, T/C [6] was 29.6%. It also gave a viability, T/C [7] of 41.1%, a viability, T/C [8] of 41.7% and a viability, T/C [9] of 37.8%. For the same compound, the viability, T/C [10] was 31.9%, the viability, T/C [11] was 36.3% and the viability, T/C [12] was 15.3%. The viability, T/C [13] was 51.7%, the viability, T/C [14] was 42.3% and the viability, T/C [15] was 35.5%. The viability, T/C [16] was 33.7%, the viability, T/C [17] was 33% and the viability, T/C [18] was 13.7%. For the same compound, the viability, T/C [19] was 39.9%, the viability, T/C [20] was 32.2% and the viability, T/C [21] was 29.8%. For the same compound, the viability, T/C [22] was 33.3%, the viability, T/C [23] was 23.2% and the viability, T/C [24] was 10.2%. It also gave a viability, T/C [25] of 32.8%, a viability, T/C [26] of 34.1% and a viability, T/C [27] of 26.3%. For the same compound, the viability, T/C [28] was 33.5%, the viability, T/C [29] was 31% and the viability, T/C [30] was 8.47%. For the same compound, the viability, T/C [31] was 29.5%, the viability, T/C [32] was 29.9% and the viability, T/C [33] was 24.8%. The viability, T/C [34] was 23.9%, the viability, T/C [35] was 23.2% and the viability, T/C [36] was 6.48%.
